Results: ChEMBL document CHEMBL1201862, “PubChem BioAssay data set” (2004)
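Growth conditions: 96-well plates. Treatment: test compound, 48 hours, 5 concentrations. Analysis: linear interpolation between bracketing concentrations; unreached endpoints set to highest concentration. Here, GI50 denotes the concentration required for 50% inhibition of growth.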 Active and inactive are the calls of the source. Cut-off read from the data, not from the text of the source: active = GI50 up to about 1.1 µM and inactive = higher.

How the values were obtained:
Assay in all cases: DTP human tumour cell line panel, 48 h
A498 = test system: A498
ACHN = test system: ACHN
HCT-15 = test system: HCT-15
HOP-92 = test system: HOP-92
K562 = test system: K562
LOX IMVI = test system: LOX IMVI
M14 = test system: M14
Malme-3M = test system: Malme-3M
OVCAR-5 = test system: OVCAR-5
SF-295 = test system: SF-295
SF-539 = test system: SF-539
SK-MEL-5 = test system: SK-MEL-5
SK-OV-3 = test system: SK-OV-3
SN12C = test system: SN12C
UACC-62 = test system: UACC-62
UO-31 = test system: UO-31

SMILES	GI50 (A498)	GI50 (ACHN)	GI50 (HCT-15)	GI50 (HOP-92)	GI50 (K562)	GI50 (LOX IMVI)	GI50 (M14)	GI50 (Malme-3M)	GI50 (OVCAR-5)	GI50 (SF-295)	GI50 (SF-539)	GI50 (SK-MEL-5)	GI50 (SK-OV-3)	GI50 (SN12C)	GI50 (UACC-62)	GI50 (UO-31)
COc1ccc(S(=O)(=O)N(C)CC(=O)O)cc1	> 100 µM (inactive)	> 100 µM (inactive)	> 100 µM	> 100 µM (inactive)	> 100 µM (inactive)	> 100 µM (inactive)	> 100 µM (inactive)	> 100 µM (inactive)	> 100 µM (inactive)	> 100 µM (inactive)	> 100 µM (inactive)	> 100 µM (inactive)	> 100 µM (inactive)	> 100 µM (inactive)	> 100 µM (inactive)	> 100 µM (inactive)
COc1ccc(/N=c2\ssc3c(=S)ssc23)cc1		23.8 µM (inactive)	18.3 µM	15.5 µM (inactive)	3.99 µM (inactive)	15.7 µM (inactive)	20 µM (inactive)	34.9 µM (inactive)	30.2 µM (inactive)	53.3 µM (inactive)	27.4 µM (inactive)	19.4 µM (inactive)	> 100 µM (inactive)	37.8 µM (inactive)	20.2 µM (inactive)	
O=C1Nc2ccccc2C1(O)C/C(=N/O)c1ccc2ccccc2c1 (configuration not stated)	> 100 µM (inactive)	> 100 µM (inactive)	> 100 µM		72.6 µM (inactive)	22.3 µM (inactive)	> 100 µM (inactive)	> 100 µM (inactive)	> 100 µM (inactive)	> 100 µM (inactive)	> 100 µM (inactive)		49.1 µM (inactive)	> 100 µM (inactive)		75.9 µM (inactive)
c1ccc2c(c1)[Se]c1ccccc1[Se]2	> 100 µM (inactive)	> 100 µM (inactive)		25.8 µM (inactive)	> 100 µM (inactive)	> 100 µM (inactive)	> 100 µM (inactive)	> 100 µM (inactive)	> 100 µM (inactive)	25.6 µM (inactive)	44.3 µM (inactive)	> 100 µM (inactive)	> 100 µM (inactive)	> 100 µM (inactive)	> 100 µM (inactive)	51.6 µM (inactive)
Cc1ccc(S(=O)(=O)OC2CC=CC2)cc1		> 100 µM (inactive)	> 100 µM	> 100 µM (inactive)	> 100 µM (inactive)	> 100 µM (inactive)	> 100 µM (inactive)	> 100 µM (inactive)	> 100 µM (inactive)	> 100 µM (inactive)		> 100 µM (inactive)	> 100 µM (inactive)	> 100 µM (inactive)	> 100 µM (inactive)	> 100 µM (inactive)
CCOC(=O)C(C)(NC(=O)c1ccc(NCc2ccc3nc(NC(=O)c4ccccc4)nc(NC(=O)c4ccccc4)c3c2)cc1)C(=O)OCC	9.35 µM (inactive)	8.17 µM (inactive)	24.4 µM	5.62 µM (inactive)		13.6 µM (inactive)	13 µM (inactive)	15 µM (inactive)	> 100 µM (inactive)	6.79 µM (inactive)	3.51 µM (inactive)	7.28 µM (inactive)	12.5 µM (inactive)	11.4 µM (inactive)	8.49 µM (inactive)	18.1 µM (inactive)
CC(C)c1cc2c(O)c(c1)Cc1cc(C(C)C)cc(c1O)Cc1cc(C(C)C)cc(c1O)Cc1cc(C(C)C)cc(c1O)C2	> 100 µM (inactive)		> 100 µM	> 100 µM (inactive)	> 100 µM (inactive)	> 100 µM (inactive)		> 100 µM (inactive)	> 100 µM (inactive)	> 100 µM (inactive)	> 100 µM (inactive)	> 100 µM (inactive)	> 100 µM (inactive)		> 100 µM (inactive)	> 100 µM (inactive)
CC(=O)NNc1nc(C)c(C(=O)NNC(=O)C(=O)Nc2c([N+](=O)[O-])ccc(C)c2C)s1	31.6 µM (inactive)	> 100 µM (inactive)	> 100 µM	> 100 µM (inactive)	41.5 µM (inactive)	78.3 µM (inactive)	> 100 µM (inactive)	> 100 µM (inactive)	> 100 µM (inactive)	> 100 µM (inactive)	> 100 µM (inactive)	> 100 µM (inactive)		> 100 µM (inactive)	> 100 µM (inactive)	> 100 µM (inactive)
COc1cc(C2C(C(=O)O)=C(C)Oc3cc4c(cc32)OCO4)cc(OC)c1OC (configuration not stated)		45.2 µM (inactive)	18.5 µM	> 100 µM (inactive)	19.9 µM (inactive)	41.3 µM (inactive)	59 µM (inactive)	32.1 µM (inactive)		17.3 µM (inactive)		23.1 µM (inactive)	39.9 µM (inactive)	38.2 µM (inactive)	11.7 µM (inactive)	15.3 µM (inactive)
CC(O)CN1C(=O)NC(Cc2ccccc2)C1=O (configuration not stated)		> 100 µM (inactive)		> 100 µM (inactive)		> 100 µM (inactive)	> 100 µM (inactive)		> 100 µM (inactive)	> 100 µM (inactive)	> 100 µM (inactive)			> 100 µM (inactive)		> 100 µM (inactive)
Cc1cc2c(c(C(N)=O)c1C)-c1ccccc1C2=O	51.4 µM (inactive)	> 100 µM (inactive)	> 100 µM	> 100 µM (inactive)	> 100 µM (inactive)	> 100 µM (inactive)	> 100 µM (inactive)	> 100 µM (inactive)	> 100 µM (inactive)	> 100 µM (inactive)	> 100 µM (inactive)		> 100 µM (inactive)	> 100 µM (inactive)	> 100 µM (inactive)	> 100 µM (inactive)
COc1ccccc1N1C(=O)/C(=C/c2ccc(N(CCC#N)CCC#N)cc2C)N=C1c1cc([N+](=O)[O-])ccc1Cl	> 100 µM (inactive)	> 100 µM (inactive)	> 100 µM		> 100 µM (inactive)		68.2 µM (inactive)	> 100 µM (inactive)	> 100 µM (inactive)	> 100 µM (inactive)	> 100 µM (inactive)	> 100 µM (inactive)	> 100 µM (inactive)	> 100 µM (inactive)		> 100 µM (inactive)
CCN(CC)CCN1C(=O)CC2[C@@H]3CCc4cc(OC)ccc4C3CC[C@]2(C)C1=O (some centres not stated)	36 µM (inactive)	96.4 µM (inactive)		24 µM (inactive)	15.2 µM (inactive)		17.7 µM (inactive)	18.5 µM (inactive)	32.5 µM (inactive)	18.4 µM (inactive)	0.0134 µM (active)		> 100 µM (inactive)		19.3 µM (inactive)	17.4 µM (inactive)
CCC(Oc1ccc(OC)c2ccccc(=O)c12)C(=O)O (configuration not stated)	> 100 µM (inactive)	> 100 µM (inactive)	> 100 µM		> 100 µM (inactive)	> 100 µM (inactive)	> 100 µM (inactive)	> 100 µM (inactive)	> 100 µM (inactive)	> 100 µM (inactive)	> 100 µM (inactive)	> 100 µM (inactive)	> 100 µM (inactive)	> 100 µM (inactive)	> 100 µM (inactive)	> 100 µM (inactive)
